The source of these data is ChEMBL document CHEMBL1201862, “PubChem BioAssay data set” (2004).

Some test systems named below: 786-0; A498; COLO 205; HCT-116; HCT-15; HT-29; MDA-MB-231; MDA-MB-435; OVCAR-4; RXF 393; SF-268; SF-295; SK-MEL-28; SK-MEL-2; SR; T47D; TK-10; UACC-62; SK-OV-3; BT-549.
Common to all, as to assay: NCI anticancer screen, dose series, 48 h

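Following 48 hours of exposure in 96-well plates, responses at five concentrations were used to interpolate endpoints linearly. At the GI50, growth is halved.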 The source made the active and inactive calls. Rule as the data show it: active = GI50 up to about 1.1 µM and inactive = higher. Some results are limits rather than exact numbers.

For `N[C@H]1CCN(c2c(F)cc3c(=O)c(C(=O)O)cn4c3c2Oc2c-4ccc3c2ccc2ccccc23)C1`, the GI50 with 786-0 was 0.128 µM (active); in the assay with A498, 10.4 µM (inactive); in the assay on COLO 205, 1.13 µM (inactive); with HCT-116, 0.492 µM (active); with HCT-15 it was 0.364 µM; in the assay on HT-29, 0.117 µM (active). The GI50 in the assay with MDA-MB-231 is 4.91 µM (inactive); in the assay with MDA-MB-435 it was 1.05 µM (active); in the assay on OVCAR-4, 0.535 µM (active); in the assay with RXF 393, 0.255 µM (active); with SF-268 it was 0.288 µM (active); with SF-295, 1.48 µM (inactive). Besides, the GI50 with SK-MEL-28 was 2.52 µM (inactive); with SK-MEL-2, 9.77 µM (inactive); in the assay with SR, 0.0532 µM (active); with T47D it was 2.65 µM (inactive); in the assay with TK-10 it was 0.408 µM (active); in the assay on UACC-62, 5.68 µM (inactive).

In the case of `Oc1ccccc1/C=N/N1C(=S)N(c2ccccc2)C(=N\c2ccccc2)/C1=N/c1ccccc1`, the GI50 with 786-0 is 2.72 µM (inactive); in the assay on A498 it was 5.33 µM (inactive); with COLO 205 it was 3.27 µM (inactive); in the assay on HCT-116, 11.6 µM (inactive); with HCT-15, 35 µM; with HT-29, 3.63 µM (inactive). The GI50 was 10 µM (inactive) in the assay on MDA-MB-231; 22.3 µM (inactive) with MDA-MB-435; 1.27 µM (inactive) in the assay with OVCAR-4; 5.41 µM (inactive) in the assay on RXF 393; 12.1 µM (inactive) with SF-268; 8.39 µM (inactive) with SF-295. Besides, the GI50 was 26.8 µM (inactive) in the assay with SK-MEL-28; 17.7 µM (inactive) in the assay on SK-MEL-2; 13.9 µM (inactive) in the assay on SK-OV-3; 18.7 µM (inactive) in the assay on SR; 15.9 µM (inactive) in the assay with T47D; 8.28 µM (inactive) in the assay on TK-10. The GI50 with UACC-62 is 13.9 µM (inactive).

As for `COc1ccc(N(CN2C(=O)CCC2OC)C(C)=O)cc1` (stereo unspecified), the GI50 in the assay on 786-0 was > 100 µM (inactive); in the assay on A498, > 100 µM (inactive); in the assay with COLO 205 it was > 100 µM (inactive); with HCT-116, > 100 µM (inactive); in the assay on HCT-15 it was above 100 µM; in the assay on HT-29, > 100 µM (inactive). In addition, the GI50 with MDA-MB-231, with MDA-MB-435, with OVCAR-4, with RXF 393, with SF-268 and with SF-295 was > 100 µM (inactive) in each case. Moreover, the GI50 in the assay on SK-MEL-28, in the assay with SK-MEL-2, with SK-OV-3, in the assay with SR, with T47D and with TK-10 was > 100 µM (inactive) throughout. The GI50 in the assay with UACC-62 was > 100 µM (inactive).

`CC[C@H](NC1=C(Cl)C(=O)c2c(O)ccc(O)c2C1=O)C(=O)OC`: the GI50 with 786-0 was 4.69 µM (inactive); in the assay on BT-549 it was > 10 µM (inactive); in the assay with COLO 205, 3.58 µM (inactive); in the assay on HCT-116, 2.34 µM (inactive); with HCT-15 it was 5.33 µM; in the assay on HT-29, 2.78 µM (inactive). Moreover, the GI50 is 3.33 µM (inactive) with MDA-MB-231; 3.26 µM (inactive) in the assay on MDA-MB-435; 7.71 µM (inactive) in the assay with OVCAR-4; 4.13 µM (inactive) with SF-268; > 10 µM (inactive) in the assay with SF-295; > 10 µM (inactive) with SK-MEL-2. For the same compound, the GI50 in the assay on SK-OV-3 is > 10 µM (inactive); in the assay with SR, 1.64 µM (inactive); with TK-10, > 10 µM (inactive); with UACC-62, > 10 µM (inactive).

Take `CCOC(=O)c1c(N=P(c2ccccc2)(c2ccccc2)c2ccccc2)nnc(-c2ccccc2)c1-c1ccccc1`: the GI50 in the assay with 786-0 was > 100 µM (inactive); in the assay on A498 it was 25.9 µM (inactive); with COLO 205, > 100 µM (inactive); with HCT-116, > 100 µM (inactive); in the assay on HCT-15, above 100 µM; in the assay with HT-29, > 100 µM (inactive). Also, the GI50 in the assay on MDA-MB-231 was > 100 µM (inactive); in the assay on MDA-MB-435, > 100 µM (inactive); in the assay with OVCAR-4, > 100 µM (inactive); in the assay on RXF 393, 61.1 µM (inactive); in the assay with SF-268, > 100 µM (inactive); in the assay with SF-295, > 100 µM (inactive). The GI50 with SK-MEL-28 is > 100 µM (inactive); with SK-MEL-2, 43.8 µM (inactive); with SK-OV-3, > 100 µM (inactive); in the assay with SR, > 100 µM (inactive); in the assay with T47D, > 100 µM (inactive); in the assay on TK-10, > 100 µM (inactive). For the same compound, the GI50 with UACC-62 is > 100 µM (inactive).

As to `O=c1c(-c2ccccc2)c(SCCO)n(-c2ccccc2)c(=S)n1-c1ccccc1`, the GI50 is > 100 µM (inactive) in the assay on 786-0; > 100 µM (inactive) in the assay with BT-549; > 100 µM (inactive) in the assay on COLO 205; > 100 µM (inactive) in the assay with HCT-116; above 100 µM in the assay with HCT-15; > 100 µM (inactive) in the assay with HT-29. Also, the GI50 with MDA-MB-435, in the assay on OVCAR-4, in the assay with SF-268, in the assay on SF-295, with SK-MEL-28 and with SK-MEL-2 was > 100 µM (inactive) each time. Besides, the GI50 in the assay with SK-OV-3 was > 100 µM (inactive); in the assay on SR it was > 100 µM (inactive); with TK-10, > 100 µM (inactive); in the assay on UACC-62, 39.7 µM (inactive).

Take `c1cc2nnc1SCCSCCSc1ccc(nn1)SCCSCCS2`: the GI50 is > 100 µM (inactive) in the assay with 786-0; > 100 µM (inactive) in the assay with A498; > 100 µM (inactive) in the assay with COLO 205; > 100 µM (inactive) in the assay on HCT-116; above 100 µM in the assay with HCT-15; > 100 µM (inactive) in the assay on HT-29. Also, the GI50 was 40.6 µM (inactive) with MDA-MB-231; > 100 µM (inactive) with MDA-MB-435; > 100 µM (inactive) in the assay with OVCAR-4; > 100 µM (inactive) in the assay on RXF 393; > 100 µM (inactive) in the assay on SF-268; > 100 µM (inactive) in the assay with SF-295. For the same compound, the GI50 in the assay on SK-MEL-28, in the assay with SK-MEL-2, in the assay with SK-OV-3, in the assay on SR, in the assay on T47D and in the assay on TK-10 was > 100 µM (inactive) in each case. For the same compound, the GI50 in the assay on UACC-62 is > 100 µM (inactive).

Consider `CC(C)(C)OC(=O)NNC(=O)C1Cc2ccccc2OC1=O` (stereo unspecified), for which the GI50 was > 100 µM (inactive) in the assay on 786-0; > 100 µM (inactive) in the assay on BT-549; > 100 µM (inactive) in the assay on HCT-116; above 100 µM with HCT-15; > 100 µM (inactive) in the assay with HT-29; > 100 µM (inactive) in the assay on MDA-MB-435. Besides, the GI50 in the assay on RXF 393, in the assay on SF-268, with SF-295, in the assay on SK-MEL-28, in the assay with SK-MEL-2 and with SK-OV-3 was > 100 µM (inactive) each time. For the same compound, the GI50 with SR, in the assay with TK-10 and in the assay with UACC-62 was > 100 µM (inactive) throughout.
